The values below come from patent US20230028293A1, “MULTIPLE MYELOMA COMBINATION THERAPIES BASED ON PROTEIN TRANSLATION INHIBITORS AND IMMUNOMODULATORS” (The Regents of the University of Colorado, a body corporate, priority 2019, published 2023).

For series [1], the system named is primary MM cells from patient bone marrow aspirates. Put plainly: cells. Here is the method: The effect of omacetaxine in primary patient samples was tested by incubating marrow mononuclear cells (MNCs) from patient bone marrow aspirates for 48 h and measuring the number of surviving MM cells by multiparameter flow cytometry.
De-identified primary myeloma samples were thawed in a 37° C. water bath and then incubated with 100 μg DNase I (Sigma-Aldrich) for 90 sec. Samples were washed twice with 10 mL Dulbecco's Phosphate Buffered Saline without calcium and magnesium (DPBS). Cells were cultured in RPMI1640 medium containing L-glutamine with 10% FBS and 100 U/mL penicillin, 100 ug/mL streptomycin (Thermo Fisher Scientific), and 2 ng/mL interleukin 6 IL-6 (PreproTech) at 37° C. for 2 h. Cells were then transferred to 96-well plates at […] cells/mL (90,000 MNCs per well) and treated for 48 h. Stock solutions of drug were prepared at 10 mM in dimethylsulfoxide (DMSO) and stored at −20° C. until use.
After 48 h treatment, the primary samples were washed in 1× cold DPBS and re-suspended in BD Brilliant Stain Buffer (BD Biosciences, San Jose Calif.) in a 96-well V-bottom plate. Cells were treated with FcR Blocking Reagent (Miltenyi Biotec, San Diego Calif.) for 5 min and then surface stained with anti-CD19-BV786 anti-CD45-BV510, anti-CD38-PerCP-Cy5.5, anti-CD138-BV421, and anti-CD319-Alexa647 or anti-CD46-Alexa647 antibodies for 10 min on ice. Intracellular staining with anti-kappa-BV605 and anti-lambda-PE light chains was performed after paraformaldehyde fixation and permeabilization. All flow cytometry antibodies were purchased from BD Biosciences. After staining, samples were washed and resuspended with 100 μl DPBS containing 2% FBS (FACS buffer). Viability staining was done using the LIVE/DEAD Fixable Near-IR Dead Cell Stain Kit (Invitrogen, Carlsbad Calif.) by adding 1 μl of 10-fold diluted stain to each well. Flow cytometry data was collected using a BD FACSCelesta Multicolor Cell Analyzer (BD Biosciences, San Jose Calif.) equipped with a HTS. For each sample a fixed volume of 175 μL was collected by the HTS. Flow cytometry data analysis was completed using FlowJo software (FlowJo LLC, Ashland Oreg.). Myeloma populations were analyzed by gating CD19− CD45+/−CD38+ CD138+ based on the cells expressing clonal light chain restriction in each sample.

Series [2] relates to MM1.S cells. In words: Timecourse of apoptosis and cell death by Annexin V and DAPI flow cytometry. The format is cell-based. The text has this: FIG. 2A depicts the timecourse of induction of apoptosis and cell death by omacetaxine in MM1.S cells as measured by Annexin V and DAPI staining by flow cytometry.
FIG. 10A depicts the timecourse of induction of apoptosis and cell death by pomalidomide in MM1.S cells as measured by annexin V and DAPI staining by flow cytometry.
(In flow cytometry, cells or beads pass a laser one at a time.)

For the next series, the system named is c-MYC. In words: Quantitative flow cytometry of c-MYC antigen density. As to conditions: 24 h treatment. The format is cell-based.
Series [3] concerns U266, H929, MM1.S, MM1.R and RPMI-8226 MM cell lines. Put plainly: MM cell line proliferation / cytotoxicity assay (CellTiter-Glo or MTS). As to conditions: range over five MM cell lines, 96 h incubation; read-out: EC50 of inhibition of cell proliferation. The format is cell-based. Here is the method:
Omacetaxine was tested in MM cell lines in vitro and in MM patient bone marrow aspirates ex vivo. The reported cytotoxicity of omacetaxine was verified in cell culture using the U266, H929, MM1.S, MM1.R and RPMI-8226 MM cell lines. […] In a timecourse study, omacetaxine-mediated induction of apoptosis started at 2 h, and cell death began after 24 h (FIGS. 1B, 1C, and 2A).
Either CellTiter-Glo Luminescent Cell Viability or CellTiter 96 AQueous MTS Cell Proliferation assay (Promega, Madison Wis.) were used to generate dose response curves of myeloma cell line proliferation treated with various anti-myeloma agents. Working solutions of CellTiter-Glo or CellTiter AQueous reagent were prepared per manufacturer instructions. Cells were combined with drug of interest at a concentration of 50,000 cells/well and incubated in 96-well culture plates at 37° C. for 96 h. After the incubation, the viability or proliferation results were obtained via Vmax Kinetic Microplate Reader (Molecular Devices, Sunnyvale Calif.). Cell line toxicity was also measured using high throughput flow cytometry.

Series [4] relates to MM cell lines (H929, MM.1S, U266). In words: Seahorse glycolysis stress test (ECAR). The format is cell-based. To be noted: after 4 h. Here is the method: MM cell lines were incubated with pomalidomide for 24 h, omacetaxine for 4 h, or in staggered combination. The cells were washed and resuspended in Agilent Seahorse XF DMEM Medium, pH 7.4 (Agilent Technologies, Santa Clara, Calif.). Glycolytic flux, extracellular acidification rate (ECAR) was measured on a Seahorse XFe96 Analyzer using the Seahorse XF Glycolysis Stress Test Kit according to manufacture instructions (Agilent Technologies).

Series [5] has as its system MM1.S cells. Put plainly: Whole cell proteomics of treated MM cells. The format is cell-based. As to conditions: omacetaxine 4 h, pomalidomide 24 h, staggered combination. The protocol: Whole cell proteomics of MM cells treated with the omacetaxine/pomalidomide combination were compared to single agent treatments at a timepoint before substantial apoptosis or cell death began. Although omacetaxine is rapidly cytotoxic to MM cells, the cytotoxicity of pomalidomide occurs after a longer delay, with apoptosis and cell death beginning at 24 h (FIG. 10A). […] For proteomics, MM1.S cells were treated in triplicate with omacetaxine for 4 h, pomalidomide for 24 h, or the staggered combination treatment and compared to untreated controls.
Cells were lysed with RIPA buffer (Thermo Fisher Scientific) and digested according to the FASP protocol. Recovered peptides were dried, desalted, and concentrated on Thermo Scientific Pierce C18 Tips. Cell lysates were analyzed using an Orbitrap Fusion mass spectrometer connected to an EASY-nLC 1200 system (Thermo Fisher Scientific) with a nanoelectrospray ion source. Data was acquired using the Xcaliburm (version 4.1) software. MS/MS spectra were extracted, and Proteome Discoverer Software (ver. 2.1.0.62) was used to convert the raw data into mgf files. The files were then searched against a human database using an in-house Mascot server (Version 2.6, Matrix Science). Scaffold (version 4.8, Proteome Software, Portland, Oreg.) was used to validate MS/MS based peptide and protein identifications. […]

Take `COC(=O)C[C@](O)(CCCC(C)(C)O)C(=O)O[C@@H]1C(OC)=C[C@]23CCCN2CCc2cc4c(cc2[C@H]13)OCO4` [omacetaxine, Omacetaxine mepesuccinate]: the “cytotoxicity in relation to MCL1 priming (BH3 profiling) of primary samples” value in series [1] was “potent anti-myeloma activity in samples that were not MCL1 primed”. Moreover, the “patient samples with >50% reduction in viable MM cells (39/50)” value in series [1] (50 nM, 48 h, 50 patient samples) worked out at 78%. Further, the “cross-resistance in relapsed/refractory patients resistant to PI and IMiDs” value in series [1] (50 nM, 48 h ex vivo) was “did not show cross-resistance”. For the same molecule, the EC50 in series [1] (Homo sapiens, 48 h, read-out: EC50 of decrease in MM cell viability ex vivo) was 25 to 100 nM. Further, in the series with MM1.S cells [2], the “time at which cell death began” value came out at 24 h and the “time at which induction of apoptosis started” value was 2 h. Also, the “c-MYC protein level in MM cell lines” value in the series with c-MYC is on record as “decreases”. Further, in series [3], the EC50 was in the range of 15 to 35 nM. For the same molecule, in series [4], the “effect on metabolism of myeloma cell lines (Seahorse, ECAR)” value is listed as “shut down metabolism”. Further, in the series on MM1.S cells [5], the “proteins among the most downregulated versus untreated controls” value was “IGL1 and JCHAIN”.
